# How the values were obtained:
# [1] = tested on: neutrophils in BALF, lipopolysaccharide (LPS)-induced pulmonary injury model; experiment: Inhibitory effect on increase of neutrophils in LPS-induced pulmonary injury model; type: in vivo; conditions: male BALB/c mice, 0.1 mg/body intratracheally together with LPS, BAL 6 hours after administration
# Experimental: Physiological saline containing 25% Alevaire (registered trademark, Azwell Inc., Osaka) which is an inhalant for respiratory organs (administration solvent), or administration solvent dissolving 300 ng/mL of LPS (manufactured by Sigma-Aldrich, Mo., USA) were administered intratracheally to 9-week-old male BALB/c mice (Charles River Japan, Kanagawa) in an amount of 0.1 mL respectively. Then bronchoalveolar lavages (BALS) were performed 6 hours after the intratracheal administration (These administration groups were referred to as a “solvent administration group” and an “LPS administration group”, respectively). […]
# The recovered bronchoalveolar lavage fluids (BALFS) were centrifuged at 570×g for 10 minutes at 4° C., followed by removal of supernatants to obtain pellets. […] The total numbers of leukocytes were counted with an automatic blood cell counter Celltac α (Nihon Kohden Corporation, Tokyo). […] Then, the numbers of cells were counted under a microscope (400×).
# The number of cells was counted up to 300 in total while macrophages, neutrophils and lymphocytes were distinguished. Then, the ratio of each cell was calculated (equation 1). The number of neutrophils was calculated from the ratio of neutrophils and the total number of leukocytes (equation 2). The inhibition ratio of the increase in number of neutrophils by the administration of Compound (I) was calculated by equation 3. […]
# [2] = tested on: neutrophils in BALF, mainstream of cigarette smoke induced pulmonary injury model; experiment: Inhibitory effect on increase of neutrophils in mainstream of cigarette smoke induced pulmonary injury model; type: in vivo; conditions: male CD rats, 0.3 mg/body orally 10 to 12 hours before exposure to mainstream of cigarette smoke, BAL after the exposure for 6 hours
# Experimental: Compound (I) was suspended to the concentration of 0.6 mg/mL in a physiological saline containing 25% Alevaire (registered trademark, Azwell, Osaka), which is an inhalant for respiratory organs, (administration solvent). The suspension was used for the test. The suspension is referred to as a “suspension for the administration of Compound (I)”.
# First, 0.5 mL of the administration solvent or the suspension for the administration of Compound (I) per kilogram of body weight was administered orally to male CD rats aged 6 to 7 weeks (Charles River Japan, Kanagawa). After 10 to 12 hours, the rats were systemically exposed to mainstream of cigarette smoke (Hi-Lite, Japan Tobacco Inc., Tokyo) using a smoking exposure instrument (M•I•P•S, Osaka). The exposure to the mainstream of cigarette smoke for 5 minutes and then exposure to air for 10 minutes were successively performed by repeating them eight times.
# A group subjected to the administration of the administration solvent and exposure to air instead of mainstream of cigarette smoke is referred to as a “solvent administration group”. […]
# After the exposure for 6 hours, BALs were performed with Hanks' solution [Hanks' Balanced Salt Solution (Invitrogen Corporation, CA, USA)] […] All of the BALFs were recovered and subjected to treatment as in Test example 1, and then the numbers of neutrophils were measured. […]
smiles,measurement,setting,value
"COc1ccc(C(=O)Cc2c(Cl)cncc2Cl)c2c1OC1(CCCC1)O2 [Compound (I), 7-[2-(3,5-dichloro-4-pyridyl)-1-oxoethyl]-4-methoxy-spiro[1,3-benzodioxol-2,1′-cyclopentane]]",Number of neutrophils,[1]; mean ± standard error,0.72 ± 0.22 ×10^5 cells/BALF
same,Inhibition ratio of increase in number of neutrophils,[1]; equation 3,47%
same,Inhibition ratio of increase in number of neutrophil,[2],81%
same,Number of neutrophils,[2]; mean ± standard error,0.34 ± 0.13 ×10^5 cells/BALF

# Reference: patent US20060205749A1, “Remedy and/or preventive for lung diseases” (priority 2003, published 2006)
